Entries after “also recorded” stand apart in the source; their conditions may differ. Like-named read-outs stand apart in the source and are kept apart here.
Columns and labels:
[1] = tested on: carrageenan induced hind paw edema; conditions: cited from earlier work
[2] = tested on: skin erythemal response induced by solar simulated UV on the dorsal skin of human subjects; assay: Human study: reduction of skin erythemal response induced by solar simulated UV; assay type: in vivo; conditions: for Reduction in Erythema vs Base: 4 mg/sq cm immediately after irradiation and 4-5 hours later, erythema read 16-24 hours later; for statistical difference from the Base and UV alone (MED): p<0.05
[3] = cited from earlier work
[4] = 0.25% in BP 1988 Cetomacrogol Cream
[5] = 0.5% in BP 1988 Cetomacrogol Cream
[6] = 1% (1.0%) in BP 1988 Cetomacrogol Cream

For `CC1=CCC(O)(C(C)C)CC1` (stereo not drawn) [Terpinen-4-ol, terpinen-4-ol, reference compound], the anti-inflammatory activity ([1]; dosages from 0.03 mg/paw to 6.0 mg/paw) is given as “significant anti-inflammatory activity”, the “Reduction in Erythema vs Base” value [2, 4] is given as 7% and the “Reduction in Erythema vs Base” value [2, 5] is given as 45%. The “anti-inflammatory effectiveness in words (compared to Indomethacin)” value ([2]; 1% (1.0%) product) was “good performance status” and the “acute oral LD50” value [3] was 1300 mg/kg.

With `CC(C)=CCC[C@](C)(O)[C@@H]1CC=C(C)CC1` [(−) alpha-Bisabolol, (−)-alpha-bisabolol, reference compound] the “Reduction in Erythema vs Base” value [2, 4] was 10%, the “Reduction in Erythema vs Base” value [2, 5] was 44% and the “statistical difference from the Base and UV alone (MED)” value (from here on “statistical difference”) ([2]; 0.50% product) was “statistically different”.

In the case of `CC1=CCC(C(C)C)=CC1` [γ-terpinene], the anti-inflammatory activity ([1]; dose not given) is listed as “ineffective; also recorded: did not exhibit any significant anti-inflammatory activity”, the “Reduction in Erythema vs Base” value [2, 4] is listed as 52% and the “anti-inflammatory effectiveness in words (compared to Indomethacin)” value ([2]; 0.25% product) is listed as “high effective anti-inflammatory”. The “statistical difference” value ([2]; 0.25% product) was “statistically different”, the “Reduction in Erythema vs Base” value [2, 5] was 29% and the “Reduction in Erythema vs Base” value [2, 6] was 32%. The “anti-inflammatory effectiveness in words (compared to Indomethacin)” value ([2]; 1% (1.0%) product) was “statistically similar”, the “more erythema than Indomethacin” value ([2]; 1.0% product vs 1% Indomethacin) was 98% and the “reducing UV erythema (MED)” value ([2]; 1.0% product vs UV alone (MED)) was 39%. The “statistical difference” value ([2]; 1.0% product) was “not significantly different from the Base; also recorded: significantly different from the MED”.

With `COc1ccc2c(c1)c(CC(=O)O)c(C)n2C(=O)c1ccc(Cl)cc1` [Indomethacin, reference compound] the “Reduction in Erythema vs Base” value [2, 6] was 66% and the “anti-inflammatory effectiveness in words (compared to Indomethacin)” value ([2]; 1% (1.0%) product) was “most effective anti-inflammatory”.

In the case of `CC1=CC=C(C(C)C)CC1` [α-terpinene], the “anti-inflammatory activity (inhibition of edema formation)” value ([1]; highest dose tested, 6 mg/paw) is listed as “significant anti-inflammatory activity”, the “anti-inflammatory activity (inhibition of edema formation)” value ([1]; lesser dosages than 6 mg/paw) is listed as “relatively weak” and the “Reduction in Erythema vs Base” value [2, 4] is listed as 58%. The “anti-inflammatory effectiveness in words (compared to Indomethacin)” value ([2]; 0.25% product) was “good performance status”.
